Measurements published in patent publication US7994094B2, “N-pyridylpiperidine compound, method for producing the same, and pest control agent” (Otsuka Agritechno Co., Ltd., priority 2006, dated 2011).
Like-named read-outs stand apart in the source and are kept apart here. Each block holds one molecule with its values, some of them ahead of it.

Experiments:
[1] = test system: female adult citrus red mites; assay: whole plant or invertebrate; assay type: in vivo; conditions: Panonychus citri, in Citrus x aurantium, 48 h, read-out: mortality of the female adult citrus red mites
Procedure: Thereafter, 10 female adult citrus red mites were released on the Citrus aurantium leaf on the cup. The next day, a miticidal formulation containing a compound of the invention (100 ppm) was prepared by adding an aqueous solution of Sorpol 355 (manufactured by Toho Kagagu Co., Ltd.) to an acetone solution containing the compound of the invention. […] The mortality of the female adult citrus red mites was determined two days after the spraying.

[2] = test system: female adult Kanzawa spider mites; assay: whole plant or invertebrate; assay type: in vivo; conditions: Tetranychus kanzawai, in Phaseolus vulgaris, 48 h, read-out: mortality of the female adult Kanzawa spider mites
Procedure: A kidney bean leaf (3.5 cm×4.5 cm) was placed with the rear side up on the sufficiently soaked non-woven fabric. Thereafter, 20 female adult Kanzawa spider mites were released on the kidney bean leaf on the cup. […] The mortality of the female adult Kanzawa spider mites was determined two days after the spraying.

citrus rust mites = conditions: sprayed on Citrus aurantium leaf
Excerpt: A plastic cup (trade name: KP-120, manufactured by Konoike Plastic Co., Ltd., Iwata) was filled with tap water, and covered with a lid having a notch cut therein. A piece (4.5×5.5 cm) of non-woven fabric having a slit of about 4 cm in length, the slit being made parallel to the longer side of the fabric at a distance of 1 cm from the edge, was placed on the lid. The 4-cm long, 1-cm wide portion of the fabric was suspended inside the plastic cup through the notch. A Citrus aurantium leaf (3 cm×3 cm) was placed with the front side up on the sufficiently soaked non-woven fabric. To prevent drying and escape of mites, the leaf was covered with a filter paper (diameter: 5 cm, No. 2, Advantec Toyo Kaisha, Ltd.) having two holes of 10 mm in diameter. A leaf on which the citrus rust mites were bred was cut out into pieces with a cork borer (diameter: 2 mm), and the leaf pieces were placed with the front side up on the Citrus aurantium leaf on the non-woven fabric. The next day, the dry leaf pieces were removed. […] Subsequently, 4 ml of a miticidal formulation containing a test compound (100 ppm or 200 ppm), which was prepared according to Test Example 1, was sprayed over the leaf with a spray gun (PB-308 Piece Bon, Olympos, Osaka; 1 kgf/cm^2). […] The mortality of the citrus rust mites was determined two days after the spraying. […]

[3] = test system: Two-spotted spider mites (eggs); assay: Ovicidal test on two-spotted spider mites (Test Example 2); assay type: in vivo, Tetranychus urticae; conditions: 500 ppm sprayed on kidney bean leaf; six days after the spraying
Procedure: A kidney bean leaf (about 3.5×4.5 cm) was placed on the sufficiently soaked non-woven fabric. Female adult two-spotted spider mites (about 5 mites) were released on the leaf, and the leaf was placed in a thermostatic chamber (25±2° C., 16L8D). […] The ovicidal rate of the two-spotted spider mites was determined six days after the spraying.

Two-spotted spider mites = assay: whole plant or invertebrate; assay type: in vivo; conditions: Tetranychus urticae, in Phaseolus vulgaris, 48 h, read-out: mortality of the two-spotted spider mites, 500 ppm sprayed on kidney bean leaf; two days after the spraying
Procedure: A kidney bean leaf (about 3.5×4.5 cm) was placed on the sufficiently soaked non-woven fabric. Two-spotted spider mites (about twenty mites) were released on the leaf, and the leaf was placed in a thermostatic chamber (25±2° C., 16L8D). The next day, a miticidal formulation containing a compound of the invention (500 ppm) was prepared by adding an aqueous solution of Sorpol 355 (manufactured by Toho Kagagu Co., Ltd.) (100 ppm) to an acetone solution containing the compound of the invention. […] The mortality of the two-spotted spider mites was determined two days after the spraying.

melting point: 136.9 to 137.6 °C
SMILES: C[C@@H]1CN(c2ccc(C(F)(F)F)cn2)CC[C@H]1Oc1cc(-c2cc(F)cc(F)c2)n[nH]1 (relative stereo) [1a-296, trans-4-[3-(3,5-difluorophenyl)pyrazol-5-yloxy]-3-methyl-1-[5-(trifluoromethyl)-2-pyridyl]-piperidine]

SMILES: C[C@@H]1CN(c2ccc(C(F)(F)F)cn2)CC[C@H]1Oc1cc(-c2cc(F)cc(F)c2)nn1CC1OCCO1 (relative stereo) [1a-301, trans-4-[1-(1,3-dioxolan-2-yl)methyl-3-(3,5-difluorophenyl)pyrazol-5-yloxy]-3-methyl-1-[5-(trifluoromethyl)-2-pyridyl]-piperidine]
mortality at 100 ppm [1]: 100%
mortality at 100 ppm [2]: 100%

SMILES: CCCCn1nc(C(F)(F)F)cc1OC1CCN(c2ccc(C(F)(F)F)cn2)CC1 [1a-17, 4-[1-butyl-3-(trifluoromethyl)pyrazol-5-yloxy]-1-[5-(trifluoromethyl)-2-pyridyl]-piperidine]
mortality at 100 ppm [2]: 100%

SMILES: CC(C)(C)n1nc(C(F)(F)F)cc1OC1CCN(c2ccc(C(F)(F)F)cn2)CC1 [1a-26]
Insect mortality (%) (citrus rust mites; 100 ppm test compound): 100%
Insect mortality (%) (citrus rust mites; 200 ppm test compound): 67%

SMILES: FC(F)(F)c1ccc(N2CCC(Oc3cc(C(F)(F)F)nn3-c3cccc(Cl)c3)CC2)nc1 [1a-62, 4-[1-(3-chlorophenyl)-3-(trifluoromethyl)pyrazol-5-yloxy]-1-[5-(trifluoromethyl)-2-pyridyl]-piperidine]
mortality at 100 ppm [1]: 100%

melting point: 161.8 to 162.4 °C
SMILES: Cn1nc(-c2cc(Cl)cc(Cl)c2)cc1OC1CCN(c2ccc(C(F)(F)F)cn2)CC1 [1a-107, 4-[3-(3,5-dichlorophenyl)-1-methylpyrazol-5-yloxy]-1-[5-(trifluoromethyl)-2-pyridyl]-piperidine]

melting point: 102.5 to 103 °C
SMILES: Cn1nc(C(F)(F)F)cc1OC1CCN(c2ccc(C(F)(F)F)cn2)CC1(C)C (centres unmarked) [1a-215, 3,3-dimethyl-4-[1-methyl-3-(trifluoromethyl)pyrazol-5-yloxy]-1-[5-(trifluoromethyl)-2-pyridyl]-piperidine]

melting point: 105.3 to 105.6 °C
SMILES: CCCCn1nc(C(F)(F)F)cc1S(=O)(=O)C1CCN(c2ccc(C(F)(F)F)cn2)CC1 [1a-218, 4-[1-butyl-3-(trifluoromethyl)pyrazol-5-ylsulfonyl]-1-[5-(trifluoromethyl)-2-pyridyl]-piperidine]

SMILES: CCCCn1nc(-c2ccc(F)cc2)cc1OC1CCN(c2ccc(C(F)(F)F)cn2)CC1 [1a-236]
ovicidal rate of the two-spotted spider mites [3]: 100%

melting point: 133.8 to 134.5 °C
SMILES: FC(F)(F)c1ccc(N2CCC(Oc3cc(C(F)(F)F)n[nH]3)CC2)nc1 [1a-245, 4-[3-(trifluoromethyl)pyrazol-5-yloxy]-1-[5-(trifluoromethyl)-2-pyridyl]-piperidine]

SMILES: Cc1ccc(-n2nc(C(F)(F)F)cc2OC2CCN(c3ccc(C(F)(F)F)cn3)CC2)nc1 [1a-247]
ovicidal rate of the two-spotted spider mites [3]: 100%

SMILES: CCCCn1nc(-c2cc(Cl)ncc2Cl)cc1OC1CCN(c2ccc(C(F)(F)F)cn2)CC1 [1a-249]
ovicidal rate of the two-spotted spider mites [3]: 100%

SMILES: CCOC(=O)n1nc(C(F)(F)F)cc1OC1CCN(c2ccc(C(F)(F)F)cn2)CC1 [1a-288, 4-[1-ethoxycarbonyl-3-(trifluoromethyl)pyrazol-5-yloxy]-1-[5-(trifluoromethyl)-2-pyridyl]-piperidine]
mortality at 500 ppm (Two-spotted spider mites): ≥ 50%

SMILES: FC(F)(F)CCCn1nc(OC2CCN(c3ccc(C(F)(F)F)cn3)CC2)cc1C(F)(F)F [1b-49]
ovicidal rate of the two-spotted spider mites [3]: 100%

SMILES: COC(Cn1nc(O[C@@H]2[C@@H]3CC[C@H]2CN(c2ccc(C(F)(F)F)cn2)C3)cc1C(F)(F)F)OC [1b-52, 8β-[1-(2,2-dimethoxy)ethyl-5-(trifluoromethyl)pyrazol-3-yloxy]-1-[5-(trifluoromethyl)-2-pyridyl]-3-azabicyclo[3.2.1]octane]
mortality at 500 ppm (Two-spotted spider mites): ≥ 50%
